# In patent publication EP0940081A1, “Combinations of active agents and disinfectants, preservatives and antiseptics containing same” (Bode Chemie GmbH & Co., priority 1998, dated 1999):
# Experiments:
# [1] = tested on: FL-Linie (menschliche Amnionzellen); test: Cytotoxicity, cell count of monolayer culture after 24 h exposure; assay type: cell-based, human; settings: for Median der Zellzahl: 24 h
# Method: Methodik: Die Zytotoxizität wird an der FL-Linie (menschliche Amnionzellen) geprüft. 2-3 Tage nach der Zelleinsaat werden die Zellen, nachdem sie als einschichtige Zellkultur (Monolayer) vorliegen, nach Medienwechsel für 24 h mit der Prüfsubstanz exponiert, danach abgelöst und die Zellzahl in % zur Kontrolle mit dem Zellzähler Universal 87001 (mölab, Hilden) ermittelt.
# [2] = tested on: humanen Amnionepithelzellen; assay type: cell-based, human
# Description: Methodik: Die Untersuchungen wurden an einer Perfusionszellkultur mit humanen Amnionepithelzellen durchgeführt. Der Glucoseverbrauch wurde kontinuierlich von 1 bis 96 Stunden biosensorisch gemessen (Jülich et al., im Druck). Die Prüfsubstanzen wirkten von der 25. bis 48. Stunde ein.
# Pseudomonas aeruginosa = test: Agar incorporation test, bacteriostatic activity; assay type: cell-based; parameters: key to Bakteriostatische Wirksamkeit (Wachstum): ⊕⊕: ungehemmtes Wachstum; ⊕: vermindertes Wachstum; -: absolute Hemmung (a. H.); settings: for Bakteriostatische Wirksamkeit (Wachstum): 24 h bei 36 °C
# Description: (§1) Methodik: Percarbamid und Dodecylthiouroniumchlorid werden unter städigem Durchmischen bis zur vollständigen Homogenisierung erwärmt. Die Prüfung der Kombination im Vergleich zu den entsprechenden Monowirkstoffen auf bakteriostatische Wirksamkeit erfolgte im Agarinkorporationstest. Die zu untersuchenden Substanzen wurden in Wasser standardisierter Härte gelöst. Die Konzentration der Testsubstanzen im Nähragar wurde in einer geometrischen Reihe auf der Basis 2 abgestuft. Zum Beimpfen der Testplatten wurden die im Beispiel 1 genannten Testkeime 6 h in Caseinpepton-Sojamehlpepton-Lösung bebrütet und so in eine logarithmische Wachstumsphase gebracht. Danach wurden die Agarplatten sternförmig sektorenweise mit jeweils einer ? abgestrichenen Öse beimpft. Der Sektor von Proteus mirabilis wurde durch Gräben abgetrennt, um das Schwärmen zu verhindern. Nach 24 h Bebrütung bei 36 °C erfolgte die Bewertung des Bakterienwachstums unter Vergleich mit substanzfreien Kontrollplatten nach folgendem Schema: ++++ ungehemmtes Wachstum +++ geringe Wachstumshemmung (maximal ¾ des Wachstums der Kontrollen) ++ mäßige Wachstumshemmung (maximal ½ des Wachstums der Kontrollen) + starke Wachstumshemmung (maximal ¼ des Wachstums der Kontrollen) Das sog. ? verminderte Wachstum" (v. W.) umfaßt die Bereiche + bis +++ - absolute Hemmung (a. H.)
# (§2) In den Tabellen 5, 6 und 7 bedeuten ⊕⊕ ungehemmtes Wachstum und ⊕ vermindertes Wachstum.
# [3] = tested on: Sporen von Bacillus subtilis var. niger ATCC 9372; test: Sporicidal activity on spore test strips; assay type: cell-based; settings: Monowirkstoff; Einwirkungszeit 3 Tage
# Description: Methodik: Kommerzielle Teststreifen mit 10^6 Sporen von Bacillus subtilis var. niger ATCC 9372 (BAG-Bio Strips, Biologische Analysensystem GmbH Lich) wurden für 3 Tage in eine Lösung der Prüfsubstanz eingelegt. Danach wurden die Teststreifen in eine Nährlösung überführt und 7 Tage bebrütet.
# Proteus mirabilis = test: Agar incorporation test, bacteriostatic activity; assay type: cell-based; parameters: key: ⊕⊕: ungehemmtes Wachstum; ⊕: vermindertes Wachstum; -: absolute Hemmung (a. H.); settings: 24 h bei 36 °C
# Description: as §1, §2
# Escherichia coli = test: Agar incorporation test, bacteriostatic activity; assay type: cell-based; parameters: key: ⊕⊕: ungehemmtes Wachstum; ⊕: vermindertes Wachstum; -: absolute Hemmung (a. H.); settings: 24 h bei 36 °C
# Description: as §1, §2
# Enterococcus faecium = test: Agar incorporation test, bacteriostatic activity; assay type: cell-based; parameters: key: ⊕⊕: ungehemmtes Wachstum; ⊕: vermindertes Wachstum; -: absolute Hemmung (a. H.); settings: 24 h bei 36 °C
# Description: as §1, §2
# Staphylococcus aureus = test: Agar incorporation test, bacteriostatic activity; assay type: cell-based; parameters: key: ⊕⊕: ungehemmtes Wachstum; ⊕: vermindertes Wachstum; -: absolute Hemmung (a. H.); settings: 24 h bei 36 °C
# Description: as §1, §2
# [4] = Konzentration in Wasser 0,0015 %
# [5] = Konzentration in Wasser 0,003 %
# [6] = Konzentration in Wasser 0,006 %
# [7] = Konzentration in Wasser 0,012 %
# [8] = Konzentration in Wasser 0,025 %
substance,measurement,setting,value
Wasserstoffperoxid,Zellwachstum,[1],vollständigen Inhibierung des Zellwachstums
same,Median der Zellzahl,"[1]; Prüfkonzentration 0,001 %","17,9 % der Kontrolle"
same,Median der Zellzahl,"[1]; Prüfkonzentration 0,0015 %","7,3 % der Kontrolle"
same,Glucosestoffwechsel der FL-Zellen,[2],"signifikante, aber reversible Verminderung"
same,Bakteriostatische Wirksamkeit (Wachstum),"Pseudomonas aeruginosa; Konzentration in Wasser 0,1 %",-
same,Bakteriostatische Wirksamkeit (Wachstum),"Pseudomonas aeruginosa; Konzentration in Wasser 0,2 %",-
same,Bakteriostatische Wirksamkeit (Wachstum),"Pseudomonas aeruginosa; Konzentration in Wasser 0,4 %",-
same,Bakteriostatische Wirksamkeit (Wachstum),"Pseudomonas aeruginosa; Konzentration in Wasser 0,05 %",-
same,Bakteriostatische Wirksamkeit (Wachstum),"Pseudomonas aeruginosa; Konzentration in Wasser 0,8 %",-
same,Bakteriostatische Wirksamkeit (Wachstum),Pseudomonas aeruginosa; [4],⊕⊕
same,Bakteriostatische Wirksamkeit (Wachstum),Pseudomonas aeruginosa; [5],⊕⊕
same,Bakteriostatische Wirksamkeit (Wachstum),Pseudomonas aeruginosa; [6],⊕⊕
same,Bakteriostatische Wirksamkeit (Wachstum),Pseudomonas aeruginosa; [7],⊕⊕
same,Bakteriostatische Wirksamkeit (Wachstum),Pseudomonas aeruginosa; [8],⊕⊕
same,"Konzentration, durch die Pseudomonas aeruginosa gehemmt wird (minimale Hemmkonzentration)","Pseudomonas aeruginosa; single substance, resistentester Testkeim","0,05%"
same,Konzentration erforderlich zur Erreichung dieses Effektes (Reduktion der Sporen von 6 log-Stufen),[3],"0,6%"
same,Bakteriostatische Wirksamkeit (Wachstum),"Proteus mirabilis; Konzentration in Wasser 0,1 %",-
same,Bakteriostatische Wirksamkeit (Wachstum),"Proteus mirabilis; Konzentration in Wasser 0,2 %",-
same,Bakteriostatische Wirksamkeit (Wachstum),"Proteus mirabilis; Konzentration in Wasser 0,4 %",-
same,Bakteriostatische Wirksamkeit (Wachstum),"Proteus mirabilis; Konzentration in Wasser 0,05 %",-
same,Bakteriostatische Wirksamkeit (Wachstum),"Proteus mirabilis; Konzentration in Wasser 0,8 %",-
same,Bakteriostatische Wirksamkeit (Wachstum),Proteus mirabilis; [4],⊕⊕
same,Bakteriostatische Wirksamkeit (Wachstum),Proteus mirabilis; [5],⊕⊕
same,Bakteriostatische Wirksamkeit (Wachstum),Proteus mirabilis; [6],⊕⊕
same,Bakteriostatische Wirksamkeit (Wachstum),Proteus mirabilis; [7],-
same,Bakteriostatische Wirksamkeit (Wachstum),Proteus mirabilis; [8],-
same,Bakteriostatische Wirksamkeit (Wachstum),"Escherichia coli; Konzentration in Wasser 0,1 %",-
same,Bakteriostatische Wirksamkeit (Wachstum),"Escherichia coli; Konzentration in Wasser 0,2 %",-
same,Bakteriostatische Wirksamkeit (Wachstum),"Escherichia coli; Konzentration in Wasser 0,4 %",-
same,Bakteriostatische Wirksamkeit (Wachstum),"Escherichia coli; Konzentration in Wasser 0,05 %",-
same,Bakteriostatische Wirksamkeit (Wachstum),"Escherichia coli; Konzentration in Wasser 0,8 %",-
same,Bakteriostatische Wirksamkeit (Wachstum),Escherichia coli; [4],⊕⊕
same,Bakteriostatische Wirksamkeit (Wachstum),Escherichia coli; [5],⊕⊕
same,Bakteriostatische Wirksamkeit (Wachstum),Escherichia coli; [6],⊕⊕
same,Bakteriostatische Wirksamkeit (Wachstum),Escherichia coli; [7],-
same,Bakteriostatische Wirksamkeit (Wachstum),Escherichia coli; [8],-
same,Bakteriostatische Wirksamkeit (Wachstum),"Enterococcus faecium; Konzentration in Wasser 0,1 %",-
same,Bakteriostatische Wirksamkeit (Wachstum),"Enterococcus faecium; Konzentration in Wasser 0,2 %",-
same,Bakteriostatische Wirksamkeit (Wachstum),"Enterococcus faecium; Konzentration in Wasser 0,4 %",-
same,Bakteriostatische Wirksamkeit (Wachstum),"Enterococcus faecium; Konzentration in Wasser 0,05 %",-
same,Bakteriostatische Wirksamkeit (Wachstum),"Enterococcus faecium; Konzentration in Wasser 0,8 %",-
same,Bakteriostatische Wirksamkeit (Wachstum),Enterococcus faecium; [4],⊕⊕
same,Bakteriostatische Wirksamkeit (Wachstum),Enterococcus faecium; [5],⊕⊕
same,Bakteriostatische Wirksamkeit (Wachstum),Enterococcus faecium; [6],⊕
same,Bakteriostatische Wirksamkeit (Wachstum),Enterococcus faecium; [7],-
same,Bakteriostatische Wirksamkeit (Wachstum),Enterococcus faecium; [8],-
same,Bakteriostatische Wirksamkeit (Wachstum),"Staphylococcus aureus; Konzentration in Wasser 0,1 %",-
same,Bakteriostatische Wirksamkeit (Wachstum),"Staphylococcus aureus; Konzentration in Wasser 0,2 %",-
same,Bakteriostatische Wirksamkeit (Wachstum),"Staphylococcus aureus; Konzentration in Wasser 0,4 %",-
same,Bakteriostatische Wirksamkeit (Wachstum),"Staphylococcus aureus; Konzentration in Wasser 0,05 %",-
same,Bakteriostatische Wirksamkeit (Wachstum),"Staphylococcus aureus; Konzentration in Wasser 0,8 %",-
same,Bakteriostatische Wirksamkeit (Wachstum),Staphylococcus aureus; [4],⊕⊕
same,Bakteriostatische Wirksamkeit (Wachstum),Staphylococcus aureus; [5],⊕⊕
same,Bakteriostatische Wirksamkeit (Wachstum),Staphylococcus aureus; [6],⊕⊕
same,Bakteriostatische Wirksamkeit (Wachstum),Staphylococcus aureus; [7],-
same,Bakteriostatische Wirksamkeit (Wachstum),Staphylococcus aureus; [8],-
